Data as given in the supplement of paper PMC8612539.
≈ marks a conversion by molar mass, not a printed value.

Key:
Mannheimia haemolytica = assay: minimum inhibitory concentration (MIC)
Method: (§1)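 Broth microdilution MIC (Sensititre BOPO7F bovine plate, CLSI methods) of 19 antimicrobials against field isolates of P. multocida, M. haemolytica, H. somni (deep nasopharyngeal swabs) and E. coli, Enterococcus spp. (rectal swabs) from weaned dairy heifers. Incubation 16-24 h at 35 C. MIC is the lowest concentration preventing visible growth. Values with <= or > lie at the tested range limits. Trimethoprim-sulfamethoxazole is given as the trimethoprim component of a 1:19 mixture.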

Enterococcus spp. = assay: minimum inhibitory concentration (MIC)
Method: as §1

CNC(C)C1CCC(N)C(OC2C(N)CC(N)C(OC3OCC(C)(O)C(NC)C3O)C2O)O1 (centres undefined) [Gentamicin]
minimum inhibitory concentration [µg/mL]
Conditions | Enterococcus spp. | Mannheimia haemolytica
isolate (source animal id): 2 | 8 (≈ 16.8 µM) | –
isolate (source animal id): 8 | – | 2 (≈ 4.19 µM)
isolate (source animal id): 13 | – | 2 (≈ 4.19 µM)
isolate (source animal id): 18 | – | 2 (≈ 4.19 µM)
isolate (source animal id): 21 | – | 2 (≈ 4.19 µM)
isolate (source animal id): 25 | – | 4 (≈ 8.38 µM)
isolate (source animal id): 27 | – | 4 (≈ 8.38 µM)
isolate (source animal id): 28 | – | 2 (≈ 4.19 µM)
isolate (source animal id): 30 | – | 2 (≈ 4.19 µM)
isolate (source animal id): 31 | – | 4 (≈ 8.38 µM)
isolate (source animal id): 32 | – | 4 (≈ 8.38 µM)
isolate (source animal id): 34 | – | 4 (≈ 8.38 µM)
isolate (source animal id): 35 | 16 (≈ 33.5 µM) | –
isolate (source animal id): 36 | – | 4 (≈ 8.38 µM)
isolate (source animal id): 37 | – | 4 (≈ 8.38 µM)
isolate (source animal id): 40 | – | 4 (≈ 8.38 µM)
isolate (source animal id): 41 | – | 2 (≈ 4.19 µM)
isolate (source animal id): 42 | 8 (≈ 16.8 µM) | –
isolate (source animal id): 43 | – | 4 (≈ 8.38 µM)
isolate (source animal id): 44 | 16 (≈ 33.5 µM) | –
isolate (source animal id): 46 | – | 4 (≈ 8.38 µM)
isolate (source animal id): 49 | – | 4 (≈ 8.38 µM)
isolate (source animal id): 50 | – | 4 (≈ 8.38 µM)
isolate (source animal id): 51 | – | 2 (≈ 4.19 µM)
isolate (source animal id): 52 | – | 2 (≈ 4.19 µM)
isolate (source animal id): 53 | – | 4 (≈ 8.38 µM)
isolate (source animal id): 55 | – | 2 (≈ 4.19 µM)
isolate (source animal id): 56 | – | 2 (≈ 4.19 µM)
isolate (source animal id): 57 | – | 16 (≈ 33.5 µM)
isolate (source animal id): 79 | 16 (≈ 33.5 µM) | –
isolate (source animal id): 88 | 4 (≈ 8.38 µM) | –
isolate (source animal id): 91 | 4 (≈ 8.38 µM) | –
isolate (source animal id): 92 | 2 (≈ 4.19 µM) | –
isolate (source animal id): 100 | – | 4 (≈ 8.38 µM)
isolate (source animal id): 103 | – | 4 (≈ 8.38 µM)
isolate (source animal id): 107 | – | 4 (≈ 8.38 µM)
isolate (source animal id): 108 | – | 4 (≈ 8.38 µM)
isolate (source animal id): 111 | 4 (≈ 8.38 µM) | –
isolate (source animal id): 112 | – | 2 (≈ 4.19 µM)
isolate (source animal id): 113 | – | 16 (≈ 33.5 µM)
isolate (source animal id): 121 | – | 4 (≈ 8.38 µM)
isolate (source animal id): 122 | 16 (≈ 33.5 µM) | 4 (≈ 8.38 µM)
isolate (source animal id): 123 | 8 (≈ 16.8 µM) | 16 (≈ 33.5 µM)
isolate (source animal id): 126 | – | 4 (≈ 8.38 µM)
isolate (source animal id): 133 | 16 (≈ 33.5 µM) | 2 (≈ 4.19 µM)
isolate (source animal id): 135 | – | > 16
isolate (source animal id): 138 | – | 4 (≈ 8.38 µM)
isolate (source animal id): 141 | – | 16 (≈ 33.5 µM)
isolate (source animal id): 142 | – | 4 (≈ 8.38 µM)
isolate (source animal id): 145 | – | 4 (≈ 8.38 µM)
isolate (source animal id): 149 | – | 2 (≈ 4.19 µM)
isolate (source animal id): 151 | – | 2 (≈ 4.19 µM)
isolate (source animal id): 152 | – | 2 (≈ 4.19 µM)
isolate (source animal id): 154 | – | 2 (≈ 4.19 µM)
isolate (source animal id): 158 | 16 (≈ 33.5 µM) | –
isolate (source animal id): 159 | – | 4 (≈ 8.38 µM)
isolate (source animal id): 162 | – | 4 (≈ 8.38 µM)
isolate (source animal id): 168 | 8 (≈ 16.8 µM) | –
isolate (source animal id): 169 | 8 (≈ 16.8 µM) | –
isolate (source animal id): 170 | – | 4 (≈ 8.38 µM)
isolate (source animal id): 171 | 4 (≈ 8.38 µM) | 2 (≈ 4.19 µM)
isolate (source animal id): 172 | – | 4 (≈ 8.38 µM)
isolate (source animal id): 173 | – | 4 (≈ 8.38 µM)
isolate (source animal id): 175 | 8 (≈ 16.8 µM) | –
isolate (source animal id): 177 | 8 (≈ 16.8 µM) | –
isolate (source animal id): 179 | – | 4 (≈ 8.38 µM)
isolate (source animal id): 180 | – | 2 (≈ 4.19 µM)
isolate (source animal id): 181 | 8 (≈ 16.8 µM) | –
isolate (source animal id): 182 | 8 (≈ 16.8 µM) | –
isolate (source animal id): 183 | 8 (≈ 16.8 µM) | 2 (≈ 4.19 µM)
isolate (source animal id): 186 | – | 4 (≈ 8.38 µM)
isolate (source animal id): 187 | 8 (≈ 16.8 µM) | 2 (≈ 4.19 µM)
isolate (source animal id): 188 | – | 2 (≈ 4.19 µM)
isolate (source animal id): 190 | 8 (≈ 16.8 µM) | 2 (≈ 4.19 µM)
isolate (source animal id): 191 | – | 4 (≈ 8.38 µM)
isolate (source animal id): 192 | – | 2 (≈ 4.19 µM)
isolate (source animal id): 194 | 4 (≈ 8.38 µM) | –
isolate (source animal id): 195 | 8 (≈ 16.8 µM) | –
isolate (source animal id): 197 | 8 (≈ 16.8 µM) | –
isolate (source animal id): 201 | – | 2 (≈ 4.19 µM)
isolate (source animal id): 202 | – | 4 (≈ 8.38 µM)
isolate (source animal id): 209 | – | 4 (≈ 8.38 µM)
isolate (source animal id): 211 | 8 (≈ 16.8 µM) | 2 (≈ 4.19 µM)
isolate (source animal id): 214 | 16 (≈ 33.5 µM) | –
isolate (source animal id): 220 | – | 4 (≈ 8.38 µM)
isolate (source animal id): 221 | – | 4 (≈ 8.38 µM)
isolate (source animal id): 222 | 8 (≈ 16.8 µM) | –
isolate (source animal id): 223 | 8 (≈ 16.8 µM) | 4 (≈ 8.38 µM)
isolate (source animal id): 228 | 8 (≈ 16.8 µM) | –
isolate (source animal id): 230 | 8 (≈ 16.8 µM) | –
isolate (source animal id): 233 | – | 4 (≈ 8.38 µM)
isolate (source animal id): 235 | 4 (≈ 8.38 µM) | –
isolate (source animal id): 236 | 4 (≈ 8.38 µM) | –
isolate (source animal id): 237 | – | 4 (≈ 8.38 µM)
isolate (source animal id): 239 | 4 (≈ 8.38 µM) | –
isolate (source animal id): 241 | 4 (≈ 8.38 µM) | 4 (≈ 8.38 µM)
isolate (source animal id): 244 | 4 (≈ 8.38 µM) | –
isolate (source animal id): 246 | 8 (≈ 16.8 µM) | –
isolate (source animal id): 247 | 4 (≈ 8.38 µM) | –
isolate (source animal id): 250 | 8 (≈ 16.8 µM) | –
isolate (source animal id): 252 | 8 (≈ 16.8 µM) | 4 (≈ 8.38 µM)
isolate (source animal id): 253 | – | 4 (≈ 8.38 µM)
isolate (source animal id): 259 | – | 2 (≈ 4.19 µM)
isolate (source animal id): 260 | – | 4 (≈ 8.38 µM)
isolate (source animal id): 262 | – | 2 (≈ 4.19 µM)
isolate (source animal id): 268 | 4 (≈ 8.38 µM) | –
isolate (source animal id): 282 | 8 (≈ 16.8 µM) | 2 (≈ 4.19 µM)
isolate (source animal id): 285 | 16 (≈ 33.5 µM) | –
isolate (source animal id): 287 | – | 4 (≈ 8.38 µM)
isolate (source animal id): 288 | – | 2 (≈ 4.19 µM)
isolate (source animal id): 289 | 4 (≈ 8.38 µM) | –
isolate (source animal id): 290 | 4 (≈ 8.38 µM) | –
isolate (source animal id): 291 | – | 2 (≈ 4.19 µM)
isolate (source animal id): 293 | – | 4 (≈ 8.38 µM)
isolate (source animal id): 296 | 8 (≈ 16.8 µM) | –
isolate (source animal id): 298 | 4 (≈ 8.38 µM) | 2 (≈ 4.19 µM)
isolate (source animal id): 299 | – | 2 (≈ 4.19 µM)
isolate (source animal id): 300 | – | 2 (≈ 4.19 µM)
isolate (source animal id): 301 | 4 (≈ 8.38 µM) | –
isolate (source animal id): 302 | – | 2 (≈ 4.19 µM)
isolate (source animal id): 304 | – | 2 (≈ 4.19 µM)
isolate (source animal id): 306 | – | 2 (≈ 4.19 µM)
isolate (source animal id): 308 | – | 2 (≈ 4.19 µM)
isolate (source animal id): 309 | – | 2 (≈ 4.19 µM)
isolate (source animal id): 310 | 4 (≈ 8.38 µM) | –
isolate (source animal id): 313 | – | 4 (≈ 8.38 µM)
isolate (source animal id): 318 | – | 2 (≈ 4.19 µM)
isolate (source animal id): 320 | 8 (≈ 16.8 µM) | 2 (≈ 4.19 µM)
isolate (source animal id): 321 | – | 4 (≈ 8.38 µM)
isolate (source animal id): 323 | – | 2 (≈ 4.19 µM)
isolate (source animal id): 324 | – | 4 (≈ 8.38 µM)
isolate (source animal id): 326 | – | 4 (≈ 8.38 µM)
isolate (source animal id): 328 | – | 4 (≈ 8.38 µM)
isolate (source animal id): 329 | – | 4 (≈ 8.38 µM)
isolate (source animal id): 331 | 8 (≈ 16.8 µM) | –
isolate (source animal id): 333 | 4 (≈ 8.38 µM) | 4 (≈ 8.38 µM)
isolate (source animal id): 335 | – | 4 (≈ 8.38 µM)
isolate (source animal id): 338 | – | 4 (≈ 8.38 µM)
isolate (source animal id): 341 | 16 (≈ 33.5 µM) | –
